Marks after values point to notes of the source that are not given here.

Data on two compounds can be found in patent US20220031657A1 (NOVARTIS AG, priority 2017, published 2022).

Assay [1] relates to MCF-7 xenograft. As to the kind of experiment: Orthotopic MCF-7 xenograft model in NSG mice. The settings on record: for anti-tumor effect in words: LSZ102 20 mg/kg QD, tamoxifen 60 mg/kg, fulvestrant 5 mg/mouse. It counts as in vivo.
Procedure: Mice were supplemented with estradiol (0.72 mg estradiol/90-day release pellets) to further support MCF-7 tumor growth several days prior to cell implantation. MCF-7 tumors were established in female NSG mice by injection of 10×10^6 cells in 50% Matrigel® into the axillary mammary fat pad area of each mouse. When tumors reached an average of 200 mm^3, mice were randomized according to tumor volume into treatment groups (n=8).
The test system of assay [2] is MCF-7 cell line. As to the kind of experiment: Insulin driven proliferation assay. In kind it is cell-based, human.
Assay [3] concerns HBRX1298 xenograft. As to the kind of experiment: ER+ primary breast cancer model HBRX1298 in NSG mice. It counts as in vivo. Conditions: 5 mg/mouse SC QWeek, Day 63.
Procedure: HBRX1298 tumors were established in NSG female mice by injection of a tumor brei into the inguinal mammary fat pad area. Mice were implanted with 0.72 mg estradiol/90-day release pellets several days prior to cell implantation. When tumors reached approximately 250 mm3, mice were randomized according to tumor volume into treatment groups (n=6 for all, except n=4 for estradiol withdrawal) on Day 38.
Assay [4] has as its system MCF-7 xenograft. The assay can be described thus: Dose fractionation study in mice with MCF-7 xenografts. In kind it is in vivo. The settings on record: 5 mg/mouse SC QWeek, Day 61.
Assay [5] deals with T1, ERα (Homo sapiens, UniProt P03372).
T1 sequence (P03372 1-595): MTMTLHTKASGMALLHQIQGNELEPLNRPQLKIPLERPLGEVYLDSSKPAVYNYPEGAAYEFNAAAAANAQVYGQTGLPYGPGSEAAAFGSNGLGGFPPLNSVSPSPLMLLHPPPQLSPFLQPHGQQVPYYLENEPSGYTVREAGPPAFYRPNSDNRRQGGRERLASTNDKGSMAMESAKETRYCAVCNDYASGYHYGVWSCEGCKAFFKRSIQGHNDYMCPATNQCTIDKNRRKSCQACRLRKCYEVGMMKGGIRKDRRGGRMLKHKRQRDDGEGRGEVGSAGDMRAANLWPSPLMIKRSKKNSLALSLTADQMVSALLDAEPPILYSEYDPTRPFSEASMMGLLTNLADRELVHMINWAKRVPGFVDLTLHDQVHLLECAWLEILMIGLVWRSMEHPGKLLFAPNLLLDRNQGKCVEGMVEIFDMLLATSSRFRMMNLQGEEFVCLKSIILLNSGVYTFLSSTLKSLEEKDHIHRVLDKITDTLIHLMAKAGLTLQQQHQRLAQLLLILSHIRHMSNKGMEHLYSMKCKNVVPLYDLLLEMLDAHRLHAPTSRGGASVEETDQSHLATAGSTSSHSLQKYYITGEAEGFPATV
As to the kind of experiment: Immunoblot ERα protein quantification, MCF-7 parental cells. Conditions: 24 hr. For orientation: In western blotting, separated proteins are transferred to a membrane and probed.

As to `CC/C(=C(\c1ccccc1)c1ccc(OCCN(C)C)cc1)c1ccccc1` [Tamoxifen], the “anti-tumor effect in words” value in assay [1] was “tumor stasis”. The “effect in insulin driven proliferation assay” value in assay [2] was “unaffected”.
In the case of `C[C@]12CC[C@@H]3c4ccc(O)cc4C[C@@H](CCCCCCCCC[S+]([O-])CCCC(F)(F)C(F)(F)F)[C@H]3[C@@H]1CC[C@@H]2O` (some centres unmarked) [Fulvestrant], the “ΔT/ΔC (%)” value is 48* % in assay [3]; 18* % in assay [4]; 24* % in assay [1] (5 mg/mouse SC QWeek, Day 48). Moreover, the “anti-tumor effect in words” value in assay [1] is reported as “suppression of growth”. Besides, the ER protein levels entry in assay [5] is listed as “significantly reduce ER protein levels”. In addition, in assay [2], the “effect in insulin driven proliferation assay” value is “inhibited”.
